Bridge positions count the residues as written; N and C are the ends. Square brackets hold non-standard residues; d marks the D form. Peptide text beside a SMILES is read from it. * marks the point of attachment. hPhe(3-Cl-4-CF3) = N[C@@H](CCc1ccc(C(F)(F)F)c(Cl)c1)C(=O)O; hPhe(3-F,4-CF3) = N[C@@H](CCc1ccc(C(F)(F)F)c(F)c1)C(=O)O; NMeAla(4-thiazolyl) = CN[C@@H](Cc1cscn1)C(=O)O; NMePhe(4-Me) = CN[C@@H](Cc1ccc(C)cc1)C(=O)O; NMeGly(cPent) = CN[C@H](C(=O)O)C1CCCC1; Phe(3-I) = N[C@@H](Cc1cccc(I)c1)C(=O)O; NMeY = CN[C@@H](Cc1ccc(O)cc1)C(=O)O; NMeCha = CN[C@@H](CC1CCCCC1)C(=O)O; NMeChg = CN[C@H](C(=O)O)C1CCCCC1; NMeF = CN[C@@H](Cc1ccccc1)C(=O)O; NMeI = CC[C@H](C)[C@H](NC)C(=O)O; NMeD = CN[C@@H](CC(=O)O)C(=O)O; NMeL = CN[C@@H](CC(C)C)C(=O)O; NMeV = CN[C@H](C(=O)O)C(C)C; d(β3hA) = C[C@@H](N)CC(=O)O; dIva = CC[C@@](C)(N)C(=O)O; NMeS = CN[C@@H](CO)C(=O)O; Morpholide = C1CN(*)CCO1; NMeA = CN[C@@H](C)C(=O)O; NMeAib = CNC(C)(C)C(=O)O; Piperidide = C1CCN(*)CC1; Pra = C#CC[C@H](N)C(=O)O; dNMeA = CN[C@H](C)C(=O)O; Ac5c = NC1(C(=O)O)CCCC1; Aze = O=C(O)[C@@H]1CCN1; CH2CMe2OH = CC(C)(O)C*; Aib = CC(C)(N)C(=O)O; Isopentyl = CC(C)CC*; CF3 = FC(F)(F)*; Sar = CNCC(=O)O
What follows are compounds tested on Human pancreatic cancer cell line AsPC-1 (G12D mutation Kras) (assay: AsPC-1 cell growth inhibition (AsPC-1 CGI)). Conditions: read-out: AsPC-1 cell growth inhibition, 50% growth inhibitory concentration (IC50 value); 96 hours, CellTiter-Glo, values classified in ranges.
Format: cell-based
Description: Test compounds were serially dilated with dimethyl sulfoxide, and 200 nL was then dispensed to a U-bottom 96-well plate using Labcyte Echo. […] The cell suspension was dispensed to a. plate containing a test compound at 100 μL per well and incubated at 37° C. in a 5% carbon dioxide gas incubator. 96 hours later, 80 μL of CellTiter-Glo (Promega) was added to each well and fluorescence was measured.

Question: With `CC[C@H](C)[C@@H]1NC(=O)[C@H](CC(C)C)N(C)C(=O)C[C@@H](C(=O)N2CCCCC2)N(C)C(=O)[C@H](C2CCCCC2)N(C)C(=O)[C@@H](C)NC(=O)[C@@H]2CCCN2C(=O)[C@H](CCc2ccc(C(F)(F)F)c(Cl)c2)NC(=O)CN(C)C(=O)[C@H](CC2CCCCC2)N(C)C(=O)CN(C)C(=O)CN(C)C1=O` [Compound 917] ([NMeL]I[Sar][Sar][NMeCha][Sar][hPhe(3-Cl-4-CF3)]P[dA][NMeChg][NMeD]-Piperidide; lactam N-11) as the compound, how does the IC50 read?
Answer: > 500 nM

Question: Which IC50 does the source give for `C#CC[C@@H]1NC(=O)[C@H](Cc2cccc(I)c2)NC(=O)CN(C)C(=O)[C@H](Cc2ccccc2)N(C)C(=O)[C@@H]2CCN2C(=O)[C@H](C)N(C)C(=O)[C@H]([C@@H](C)CC)NC(=O)[C@H](CC(C)C)N(C)C(=O)C[C@@H](C(=O)N2CCCCC2)N(C)C(=O)[C@H](CC(C)C)NC(=O)C(C)(C)N(C)C1=O` [Compound 1313] ([NMeL]I[NMeA][Aze][NMeF][Sar][Phe(3-I)][Pra][NMeAib]L[NMeD]-Piperidide; lactam N-11) here?
Answer: > 500 nM

Question: Which IC50 does the source give for `CC[C@H](C)[C@@H]1NC(=O)[C@H](CC(C)C)N(C)C(=O)C[C@@H](C(=O)N2CCCCC2)N(C)C(=O)[C@H]([C@@H](C)CC)N(C)C(=O)C2(CCCC2)NC(=O)[C@@H]2CCCN2C(=O)[C@H](CCc2ccc(C(F)(F)F)c(Cl)c2)NC(=O)CN(C)C(=O)[C@H](Cc2ccc(C)cc2)N(C)C(=O)CN(C)C(=O)CN(C)C1=O` [Compound 1649] ([NMeL]I[Sar][Sar][NMePhe(4-Me)][Sar][hPhe(3-Cl-4-CF3)]P[Ac5c][NMeI][NMeD]-Piperidide; lactam N-11) here?
Answer: ≤ 20 nM

Question: With `CC[C@H](C)[C@@H]1NC(=O)[C@H](CC(C)C)N(C)C(=O)C[C@@H](C(=O)N(C)C)N(C)C(=O)[C@H]([C@@H](C)CC)N(C)C(=O)[C@H](C)NC(=O)[C@H](Cc2cscn2)N(C)C(=O)[C@H](CCc2ccc(C(F)(F)F)c(Cl)c2)NC(=O)CN(C)C(=O)[C@H](Cc2ccc(C)cc2)N(C)C(=O)[C@@H]2CCN2C(=O)[C@H](C)N(C)C1=O` [Compound 856] ([NMeL]I[NMeA][Aze][NMePhe(4-Me)][Sar][hPhe(3-Cl-4-CF3)][NMeAla(4-thiazolyl)]A[NMeI][NMeD]-NMe2; lactam N-11) as the compound, how does the IC50 read?
Answer: > 500 nM

Question: Which IC50 does the source give for `CC[C@H](C)[C@@H]1NC(=O)[C@H](CC(C)C)N(C)C(=O)C[C@@H](C(=O)N(C)C)N(C)C(=O)[C@H](C2CCCC2)N(C)C(=O)[C@H](C(C)C)NC(=O)[C@H](C)N(C)C(=O)[C@H](CCc2ccc(C(F)(F)F)c(Cl)c2)NC(=O)CN(C)C(=O)[C@H](CC2CCCCC2)N(C)C(=O)[C@@H]2CCN2C(=O)[C@H](C)N(C)C1=O` [Compound 102] ([NMeL]I[NMeA][Aze][NMeCha][Sar][hPhe(3-Cl-4-CF3)][NMeA]V[NMeGly(cPent)][NMeD]-NMe2; lactam N-11) here?
Answer: > 500 nM

Question: How did the IC50 turn out when `CC[C@H](C)[C@@H]1NC(=O)[C@H](CC(C)C)N(C)C(=O)C[C@@H](C(=O)N2CCCCC2)N(C)C(=O)[C@H](CC(C)C)N(C)C(=O)C(C)(C)NC(=O)[C@H](COCC(C)(C)O)N(C)C(=O)[C@H](CCc2ccc(C(F)(F)F)c(F)c2)NC(=O)CN(C)C(=O)[C@H](COCCC(C)C)N(C)C(=O)CN(C)C(=O)CN(C)C1=O` [Compound 1532] ([NMeL]I[Sar][Sar][NMeS](Isopentyl)[Sar][hPhe(3-F,4-CF3)][NMeS](CH2CMe2OH)[Aib][NMeL][NMeD]-Piperidide; lactam N-11) was run?
Answer: > 500 nM

Question: Which IC50 does the source give for `CC[C@H](C)[C@@H]1NC(=O)[C@H](CC(C)C)N(C)C(=O)C[C@@H](C)NC(=O)[C@H](C(C)C)N(C)C(=O)[C@@](C)(CC)NC(=O)[C@@H]2CCCN2C(=O)[C@H](CCc2ccc(C(F)(F)F)c(Cl)c2)NC(=O)CN(C)C(=O)[C@H](CC2CCCCC2)N(C)C(=O)CN(C)C(=O)CN(C)C1=O` [Compound 275] (cyclo(I[Sar][Sar][NMeCha][Sar][hPhe(3-Cl-4-CF3)]P[dIva][NMeV][d(β3hA)][NMeL])) here?
Answer: > 500 nM

Question: With `C#CC[C@@H]1NC(=O)[C@H](Cc2cccc(I)c2)NC(=O)CN(C)C(=O)[C@H](Cc2ccc(OC(F)(F)F)cc2)N(C)C(=O)[C@@H]2CCN2C(=O)CN(C)C(=O)[C@H]([C@@H](C)CC)NC(=O)[C@H](CC(C)C)N(C)C(=O)C[C@@H](C(=O)N2CCCCC2)N(C)C(=O)[C@H](CC(C)C)NC(=O)C(C)(C)N(C)C1=O` [Compound 1298] ([NMeL]I[Sar][Aze][NMeY](CF3)[Sar][Phe(3-I)][Pra][NMeAib]L[NMeD]-Piperidide; lactam N-11) as the compound, how does the IC50 read?
Answer: > 500 nM

Question: With `CC[C@H](C)[C@@H]1NC(=O)[C@H](C)N(C)C(=O)C[C@@H](C(=O)N2CCOCC2)N(C)C(=O)[C@H](C(C)C)N(C)C(=O)C2(CCCC2)NC(=O)[C@@H]2CCCN2C(=O)[C@H](CCc2ccc(C(F)(F)F)c(Cl)c2)NC(=O)[C@@H](C)N(C)C(=O)[C@H](CC2CCCCC2)N(C)C(=O)[C@@H]2CCCN2C(=O)CN(C)C1=O` [Compound 1788] ([NMeA]I[Sar]P[NMeCha][dNMeA][hPhe(3-Cl-4-CF3)]P[Ac5c][NMeV][NMeD]-Morpholide; lactam N-11) as the compound, how does the IC50 read?
Answer: > 500 nM

From US20240148821A1, “PHARMACEUTICAL USE OF CYCLIC PEPTIDE COMPOUND” (CHUGAI SEIYAKU KABUSHIKI KAISHA, priority 2021, published 2024)
